Laboratory results reported in patent US9809573B2, “Substituted pyridine derivatives useful as GSK-3 inhibitors” (priority 2013, dated 2017).
Where two headings read alike, the source gives them in different places.

What was measured:
GSK3β = GSK3β (Homo sapiens, UniProt P49841); test: GSK3β kinase assay (Caliper LabChip3000, fluoresceinated peptide substrate); type: biochemical
Experimental: (§1) The kinase assay was performed in V-bottom 384-well plates. […] The reaction was incubated at room temperature for 20 hours and terminated by adding 45 μl of 35 mM EDTA to each sample. The reaction mixture was analyzed on the Caliper LabChip3000 (Caliper, Hopkinton, Mass.) by electrophoretic separation of the unphosphorylated substrate and phosphorylated product. […] Compounds were dissolved at 10 mM in dimethylsulfoxide (DMSO) and evaluated at eleven concentrations. IC50 values were derived by non-linear regression analysis.

GSK3α = GSK3α (Homo sapiens, UniProt P49840); test: biochemical
GSK3α, sequence (P49840 whole entry, species assumed): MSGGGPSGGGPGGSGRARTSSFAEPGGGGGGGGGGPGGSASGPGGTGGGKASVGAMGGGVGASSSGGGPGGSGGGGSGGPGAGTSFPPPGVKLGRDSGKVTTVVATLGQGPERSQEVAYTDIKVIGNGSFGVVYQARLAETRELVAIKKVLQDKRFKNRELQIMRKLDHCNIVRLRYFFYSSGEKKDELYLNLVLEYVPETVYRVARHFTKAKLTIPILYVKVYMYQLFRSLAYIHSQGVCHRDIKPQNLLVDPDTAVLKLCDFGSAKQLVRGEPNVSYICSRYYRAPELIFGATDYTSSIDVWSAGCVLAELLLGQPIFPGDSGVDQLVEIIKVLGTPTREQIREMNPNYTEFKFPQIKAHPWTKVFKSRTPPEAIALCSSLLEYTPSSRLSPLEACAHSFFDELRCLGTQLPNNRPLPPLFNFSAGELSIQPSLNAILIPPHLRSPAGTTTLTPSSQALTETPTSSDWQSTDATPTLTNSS
Experimental: as §1

pTau = pTau assay (method not described); type: cell-based
[1] = first value of the cell, 250 pM enzyme, 20 uM ATP, 20 hours at room temperature, read-out: GSK3β/α (nM): GSK3β IC50
[2] = second value of the cell, 250 pM enzyme, 20 uM ATP, 20 hours at room temperature, read-out: GSK3β/α (nM): GSK3α IC50
[3] = read-out: GSK3β/α (nM): GSK3β IC50, first value of the cell, 250 pM enzyme, 20 uM ATP, 20 hours at room temperature
[4] = read-out: GSK3β/α (nM): GSK3α IC50, second value of the cell, 250 pM enzyme, 20 uM ATP, 20 hours at room temperature

GSK3β, sequence (P49841 whole entry, species assumed): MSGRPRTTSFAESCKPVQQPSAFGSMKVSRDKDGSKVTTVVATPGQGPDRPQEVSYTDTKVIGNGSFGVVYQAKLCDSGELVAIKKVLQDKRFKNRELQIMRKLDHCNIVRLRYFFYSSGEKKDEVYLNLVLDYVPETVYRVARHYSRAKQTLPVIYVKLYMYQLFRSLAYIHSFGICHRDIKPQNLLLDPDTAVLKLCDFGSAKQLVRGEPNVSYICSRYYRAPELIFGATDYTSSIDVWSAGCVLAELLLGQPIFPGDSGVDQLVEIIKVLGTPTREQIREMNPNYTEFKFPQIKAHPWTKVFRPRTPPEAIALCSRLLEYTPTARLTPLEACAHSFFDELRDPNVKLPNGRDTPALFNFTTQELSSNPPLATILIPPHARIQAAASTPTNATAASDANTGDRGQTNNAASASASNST

| SMILES | IC50 (GSK3β; [1]) [nM] | IC50 (GSK3α; [2]) [nM] | IC50 (pTau; read-out: pTau) [nM] | other results |
| --- | --- | --- | --- | --- |
| CC1CN(c2ccncc2NC(=O)c2ccnc(NC(=O)C3CC3)c2)CCO1 (racemic) [Example 46, 2-(Cyclopropanecarboxamido)-N-(4-(2-methylmorpholino)pyridin-3-yl)isonicotinamide] | – | – | – | IC50 (GSK3β): 0.54 nM; IC50 (GSK3α): 0.37 nM; IC50 (pTau; read-out: pTau (nM)): 57 nM |
| O=C(Nc1cnccc1-c1ccccc1)c1ccnc(NC(=O)[C@@H]2CC[C@@H](O)C2)c1 (relative stereo) [Example 230, 2-((1,3-Trans)-3-hydroxycyclopentanecarboxamido)-N-(4-phenylpyridin-3-yl)isonicotinamide] | – | – | – | IC50 (GSK3β): 2.5 nM; IC50 (GSK3α): 0.68 nM; IC50 (pTau; read-out: pTau (nM)): 73 nM |
| C[C@@H]1CN(c2ccncc2NC(=O)c2ccnc(NC(=O)C3CC3)c2)CCO1 (single isomer, unassigned) [Example 77] | – | – | – | IC50 (GSK3β): 8.8 nM; IC50 (GSK3α): 2.7 nM; IC50 (pTau; read-out: pTau (nM)): 220 nM |
| C[C@H]1CN(c2ccncc2NC(=O)c2ccnc(NC(=O)C3CC3)c2)CCO1 (single isomer, unassigned) [Example 78] | – | – | – | IC50 (GSK3β): 0.99 nM; IC50 (GSK3α): 0.35 nM; IC50 (pTau; read-out: pTau (nM)): 18 nM |
| O=C(Nc1cnccc1-c1ccc(Cl)cc1)c1ccnc(NC(=O)C2CC(F)C2)c1 (single isomer, unassigned) [Example 222, N-(4-(4-chlorophenyl)pyridin-3-yl)-2-((1,3-trans)-3-fluorocyclobutanecarboxamido)isonicotinamide] | – | – | 37 | IC50 (GSK3β; [3]): 1.7 nM; IC50 (GSK3α; [4]): 1.3 nM |
| O=C(Nc1cnc2ccccc2c1)c1ccnc(NC(=O)C2CC2)c1 [Example 5, 2-(Cyclopropanecarboxamido)-N-(quinolin-3-yl)isonicotinamide] | 570 | 230 | ≥ 10000 | – |
| COc1ccc(NC(=O)c2ccnc(NC(=O)C3CC3)c2)cn1 [Example 7, 2-(Cyclopropanecarboxamido)-N-(6-methoxypyridin-3-yl)isonicotinamide] | – | 1000 | ≥ 10000 | – |
| Cc1cc(NC(=O)c2ccnc(NC(=O)C3CC3)c2)cnc1F [Example 8, 2-(Cyclopropanecarboxamido)-N-(6-fluoro-5-methylpyridin-3-yl)isonicotinamide] | 48 | 24 | 1800 | – |
| Cc1ccncc1NC(=O)c1ccnc(NC(=O)C2CC2)c1 [Example 9, 2-(Cyclopropanecarboxamido)-N-(4-methylpyridin-3-yl)isonicotinamide] | – | 22 | 1200 | IC50 (GSK3β): 30 nM |
| O=C(Nc1cnccc1-c1ccncc1)c1ccnc(NC(=O)C2CC2)c1 [Example 33, N-([4,4′-bipyridin]-3-yl)-2-(cyclopropanecarboxamido)isonicotinamide] | 28 | – | 670 | – |
| O=C(Nc1cnccc1C1CCCC1)c1ccnc(NC(=O)C2CC2)c1 [Example 36, N-(4-cyclopentylpyridin-3-yl)-2-(cyclopropanecarboxamido)isonicotinamide] | – | – | 800 | IC50 (GSK3β): 41 nM |
| O=C(Nc1cnccc1C1CCCCC1)c1ccnc(NC(=O)C2CC2)c1 [Example 37, N-(4-cyclohexylpyridin-3-yl)-2-(cyclopropanecarboxamido)isonicotinamide] | – | – | 1200 | IC50 (GSK3β): 120 nM |
| C=C(C)c1ccncc1NC(=O)c1ccnc(NC(=O)C2CC2)c1 [Example 38, 2-(Cyclopropanecarboxamido)-N-(4-(prop-1-en-2-yl)pyridin-3-yl)isonicotinamide] | – | – | 80 | IC50 (GSK3β): 4.4 nM |
| CC(C)c1ccncc1NC(=O)c1ccnc(NC(=O)C2CC2)c1 [Example 39, 2-(Cyclopropanecarboxamido)-N-(4-isopropylpyridine-3-yl)isonicotinamide] | – | – | 470 | IC50 (GSK3β): 23 nM |
| O=C(Nc1cncc(-c2ccccc2OC(F)(F)F)c1)c1ccnc(NC(=O)C2CC2)c1 [Example 149, 2-(cyclopropanecarboxamido)-N-(5-(2-(trifluoromethoxy)phenyl)pyridin-3-yl)isonicotinamide] | 8.5 | 1.75 | – | – |
| O=C(Nc1cncc(C(F)(F)F)c1)c1ccnc(NC(=O)C2CC2)c1 [Example 150, 2-(cyclopropanecarboxamido)-N-(5-(trifluoromethyl)pyridin-3-yl)isonicotinamide] | 88 | 17 | – | – |
| CN(C)c1ccccc1-c1cncc(NC(=O)c2ccnc(NC(=O)C3CC3)c2)c1 [Example 154, 2-(cyclopropanecarboxamido)-N-(5-(2-(dimethylamino)phenyl)pyridin-3-yl)isonicotinamide] | 40 | 18 | – | – |
| Cc1ncc(-c2cncc(NC(=O)c3ccnc(NC(=O)C4CC4)c3)c2)s1 [Example 159, 2-(cyclopropanecarboxamido)-N-(5-(2-methylthiazol-5-yl)pyridin-3-yl)isonicotinamide] | 4.7 | 1.9 | – | – |
| Cn1cnc(NC(=O)c2ccnc(NC(=O)C3CC3)c2)c1 [Example 174, 2-(cyclopropanecarboxamido)-N-(1-methyl-1H-imidazol-4-yl)isonicotinamide] | – | 1200 | ≥ 10000 | – |
| O=C(Nc1cnc(-c2ccccn2)s1)c1ccnc(NC(=O)C2CC2)c1 [Example 176, 2-(cyclopropanecarboxamido)-N-(2-(pyridin-2-yl)thiazol-5-yl)isonicotinamide] | 650 | – | 5500 | – |
| O=C(Nc1cnccc1-c1ccccc1)c1ccnc(NC(=O)C2CC(Cl)C2)c1 (stereo not shown) [Example 215, 2-(3-Cholorocyclobutanecarboxamido)-N-(4-phenylpyridin-3-yl)isonicotinamide] | 0.4 | 0.25 | – | – |
| O=C(Nc1cnccc1-c1ccc(Cl)cc1)c1ccnc(NC(=O)C2CC(Cl)C2)c1 (stereo not drawn) [Example 225, N-(4-(4-chlorophenyl)pyridin-3-yl)-2-((1,3-cis)-3-cholorocyclobutanecarboxamido)isonicotinamide] | – | – | 43 | – |

Continued, in another order:

| IC50 (GSK3β; [1]) [nM] | IC50 (GSK3α; [2]) [nM] | IC50 (pTau; read-out: pTau) [nM] | SMILES | other results |
| --- | --- | --- | --- | --- |
| 1.8 | 24 | 4500 | O=C(Nc1cnccc1-c1ccccc1)c1ccnc(NC(=O)[C@@H]2C[C@H]2c2ccccc2)c1 (relative stereo) [Example 99, 2-((Trans)-2-phenylcyclopropanecarboxamido)-N-(4-phenylpyridin-3-yl)isonicotinamide] | – |
| – | – | 150 | O=C(Nc1cnccc1-c1ccc(Cl)cc1)c1ccnc(NC(=O)C2CC(F)C2)c1 (single isomer, unassigned) [Example 223, N-(4-(4-chlorophenyl)pyridin-3-yl)-2-((1,3-cis)-3-fluorocyclobutanecarboxamido)isonicotinamide] | IC50 (GSK3β; [3]): 6.9 nM; IC50 (GSK3α; [4]): 3.1 nM |
| 370 | 180 | 7200 | CC(=O)Nc1ccc(NC(=O)c2ccnc(NC(=O)C3CC3)c2)cn1 [Example 4, N-(6-Acetamidopyridin-3-yl)-2-(cyclopropanecarboxamido)isonicotinamide] | – |
| 7.2 | 2.7 | 190 | O=C(Nc1cncc2ccccc12)c1ccnc(NC(=O)C2CC2)c1 [Example 6, 2-(Cyclopropanecarboxamido)-N-(isoquinolin-4-yl)isonicotinamide] | – |
| 4.4 | – | 200 | O=C(Nc1cnccc1-c1ccsc1)c1ccnc(NC(=O)C2CC2)c1 [Example 31, 2-(Cyclopropanecarboxamido)-N-(4-(thiophen-3-yl)pyridin-3-yl)isonicotinamide] | – |
| 160 | – | 3200 | O=C(Nc1cnccc1-c1cccnc1)c1ccnc(NC(=O)C2CC2)c1 [Example 32, N-([3,4′-bipyridin]-3′-yl)-2-(cyclopropanecarboxamido)isonicotinamide] | – |
| 4.5 | 3.4 | – | CCCOc1ccccc1-c1cncc(NC(=O)c2ccnc(NC(=O)C3CC3)c2)c1 [Example 146, 2-(cyclopropanecarboxamido)-N-(5-(2-propoxyphenyl)pyridin-3-yl)isonicotinamide] | – |
| 4.9 | 1.4 | – | Cn1cc(-c2cncc(NC(=O)c3ccnc(NC(=O)C4CC4)c3)c2)cn1 [Example 152, 2-(cyclopropanecarboxamido)-N-(5-(1-methyl-1H-pyrazol-4-yl)pyridin-3-yl)isonicotinamid] | – |
| 5.3 | 1.6 | – | O=C(Nc1cncc(-c2cc(Cl)ccc2F)c1)c1ccnc(NC(=O)C2CC2)c1 [Example 153, N-(5-(5-chloro-2-fluorophenyl)pyridin-3-yl)-2-(cyclopropanecarboxamido)isonicotinamide] | – |
| 61 | – | 3900 | Cc1ncc(NC(=O)c2ccnc(NC(=O)C3CC3)c2)s1 [Example 177, 2-(cyclopropanecarboxamido)-N-(2-methylthiazol-5-yl)isonicotinamide] | – |
| – | – | 5500 | O=C(Nc1cnc(-c2ccccc2)s1)c1ccnc(NC(=O)C2CC2)c1 [Example 181, 2-(cyclopropanecarboxamido)-N-(2-phenylthiazol-5-yl)isonicotinamide] | – |
| – | 2.8 | 1600 | O=C(Nc1cncc(-c2ccccc2)c1)c1ccnc(NC(=O)C2CCC2)c1 [Example 213, 2-(cyclobutanecarboxamido)-N-(5-phenylpyridin-3-yl)isonicotinamide] | – |
| – | – | 15 | O=C(Nc1cnccc1-c1ccc(Cl)cc1)c1ccnc(NC(=O)C2CC(Cl)C2)c1 (stereo not drawn) [Example 224, N-(4-(4-chlorophenyl)pyridin-3-yl)-2-((1,3-trans)-3-cholorocyclobutanecarboxamido)isonicotinamide] | – |
